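Step 1: Grow cells in 96-well plates. Step 2: Expose to compound for 48 hours at 5 concentrations. Step 3: Interpolate endpoints linearly; if unreached, use highest concentration. GI50 = concentration required for 50% inhibition of growth. TGI: total growth inhibition.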
What was measured:
Assay in all cases: NCI tumour cell line growth inhibition, 48 h
HOP-62 NSCLC = system: HOP-62 NSCLC
KM12 colon = system: KM12 colon
SW-620 colon = system: SW-620 colon
MOLT-4 leukemia = system: MOLT-4 leukemia
NCI/ADR-RES ovarian = system: NCI/ADR-RES ovarian
HOP-92 NSCLC = system: HOP-92 NSCLC
UACC-257 melanoma = system: UACC-257 melanoma
RPMI-8226 leukemia = system: RPMI-8226 leukemia
SNB-19 CNS = system: SNB-19 CNS
CCRF-CEM leukemia = system: CCRF-CEM leukemia

Structure (SMILES) | TGI (HOP-62 NSCLC) [µM] | TGI (KM12 colon) [µM] | TGI (SW-620 colon) [µM] | TGI (MOLT-4 leukemia) [µM] | TGI (NCI/ADR-RES ovarian) [µM] | TGI (HOP-92 NSCLC) [µM] | TGI (UACC-257 melanoma) [µM] | TGI (RPMI-8226 leukemia) [µM] | TGI (SNB-19 CNS) [µM] | TGI (CCRF-CEM leukemia) [µM] | GI50 (KM12 colon) [µM] | GI50 (SW-620 colon) [µM] | GI50 (MOLT-4 leukemia) [µM] | GI50 (NCI/ADR-RES ovarian) [µM] | GI50 (HOP-92 NSCLC) [µM] | GI50 (UACC-257 melanoma) [µM] | GI50 (RPMI-8226 leukemia) [µM] | GI50 (CCRF-CEM leukemia) [µM] | GI50 (HOP-62 NSCLC) [µM] | GI50 (SNB-19 CNS) [µM]
COc1ccc(C2=[S+]C(c3ccccc3)(c3ccccc3)c3ccccc32)cc1 | 79.3 | 31.1 | > 100 | 61 | > 100 | 39.4 | 46.9 | 53.9 | > 100 | 88.9 | – | – | – | – | – | – | – | – | – | –
Nc1ccccc1C#CC(=O)c1cccc(C(F)(F)F)c1 | 27.9 | 82.1 | 5 | – | 47.3 | 4.84 | 29.5 | 5.4 | 27.6 | 4.42 | – | – | – | – | – | – | – | – | – | –
CCOC(=O)/C=C/c1c(C)[nH]c(=O)[nH]c1=O | > 250 | > 250 | > 250 | > 250 | > 250 | > 25 | > 250 | > 250 | > 250 | > 250 | – | – | – | – | – | – | – | – | – | –
CN=C(Nc1ccc(OC)c2ccccc12)SC | > 10 | > 10 | > 10 | > 10 | > 10 | > 10 | > 10 | > 10 | > 10 | > 10 | – | – | – | – | – | – | – | – | – | –
Cc1ccc(O)c(C2=CC3=NNC(=O)C3C(c3cccc(Cl)c3)C2)c1 (stereo not drawn) | > 100 | 55.1 | > 100 | > 100 | > 100 | 96.1 | > 100 | 75.9 | > 100 | > 100 | – | – | – | – | – | – | – | – | – | –
O=C(/C=C1\Sc2ccccc2N=C1CC(=O)c1ccccc1)c1ccccc1 | 19.8 | 24.5 | 22.5 | 24.7 | 18.7 | 21.6 | > 100 | 26.3 | > 100 | 50 | – | – | – | – | – | – | – | – | – | –
C/C(=N\NC(=S)N1CCC(N2CCCCC2)CC1)c1ccccn1 | > 19.8 | 9.53 | 12.2 | > 21 | 5.67 | 9.79 | 8.93 | > 29.4 | 11.3 | 34.3 | – | – | – | – | – | – | – | – | – | –
COc1cccc2c1C(=O)c1c(O)c3c(c(O)c1C2=O)C[C@@](O)(C(=O)COC(=O)c1ccccc1)C[C@@H]3OC1CC(N)C(O)C(C)O1 (stereo partly drawn) | – | 1.23 | 0.253 | 0.275 | 4.1 | 0.392 | 1.27 | 0.61 | – | 0.334 | 0.215 | 0.0448 | 0.0302 | 1.44 | 0.0638 | 0.262 | 0.193 | 0.0427 | – | –
Cc1ccc(Cl)cc1N=NC(=O)NNc1cc(Cl)ccc1C | 23.6 | > 100 | – | > 100 | 63.9 | 35.8 | – | > 100 | 43.2 | 54.4 | – | – | – | – | – | – | – | – | – | –
N#[N+]c1c([O-])c2ccccc2c2ccccc12 | > 100 | > 100 | > 100 | > 100 | > 100 | > 100 | > 100 | > 100 | > 100 | > 100 | – | – | – | – | – | – | – | – | – | –
c1ccc2c(c1)c1ccccc1n2Cn1c2ccccc2c2ccccc21 | > 100 | > 100 | > 100 | > 100 | > 100 | > 100 | > 100 | > 100 | > 100 | > 100 | – | – | – | – | – | – | – | – | – | –
Cc1cn(-c2cccc(NC(=O)c3ccc(C)c(Nc4nccc(-c5cccnc5)n4)c3)c2)cn1 | 3.77 | 4.98 | 4.76 | 6.56 | 10.1 | 2.51 | 3 | 5.41 | > 100 | 10.9 | 2.1 | 2.25 | 1.92 | 2.83 | 1.18 | 1.59 | 1.87 | 1.23 | 2 | 2.4
O=C1CCC[C@H]2O[C@@H](COC(=O)c3ccccc3)C[C@H]2O1 | > 100 | > 100 | > 100 | > 100 | > 100 | > 100 | > 100 | > 100 | > 100 | > 100 | – | – | – | – | – | – | – | – | – | –
O=c1oc(-c2ccc(O)cc2)cc2cc(O)ccc12 | > 100 | 68 | 87.8 | 69.2 | 47.9 | 96.2 | > 100 | > 100 | 93.6 | > 100 | – | – | – | – | – | – | – | – | – | –
Cc1cc(N/N=C/c2nc(-c3ccc(Cl)cc3)oc2C)c2cc(Br)ccc2n1 | 3.94 | 5.43 | 4.23 | 13.5 | 4.94 | 16.4 | 15 | 4.81 | 17.7 | – | 2.21 | 1.87 | 2.66 | 2.17 | 3.24 | 3.49 | 1.95 | – | 1.87 | 4.13
COc1ccc(/C=C2\C[C@H]3[C@@H]4CCC5=C/C(=N/O)CC[C@]5(C)[C@H]4CC[C@]3(C)\C2=N\O)cc1 | > 100 | > 100 | > 100 | > 100 | > 100 | > 100 | > 100 | 93.5 | > 100 | – | – | – | – | – | – | – | – | – | – | –
O=c1nc2ccc([N+](=O)[O-])cc2[n+]([O-])[nH]1 | > 100 | > 100 | > 100 | > 100 | > 100 | > 100 | > 100 | > 100 | > 100 | > 100 | – | – | – | – | – | – | – | – | – | –
C/C(=N\NC(=O)c1ccc(Cl)cc1)c1nc2ncccc2[nH]1 | > 100 | > 100 | > 100 | 90.6 | 50.1 | – | 79.9 | > 100 | > 100 | > 100 | – | – | – | – | – | – | – | – | – | –
O=C(N/N=C\c1cccc2ccccc12)Nc1ccccc1 | > 100 | > 100 | > 100 | > 100 | > 100 | > 100 | > 100 | > 100 | > 100 | > 100 | – | – | – | – | – | – | – | – | – | –
c1cc2c3c(c1)c1cc4c(cc1c[n+]3CC2)OCO4 | 15.4 | 27.8 | 109 | 9.96 | > 225 | 106 | 13.5 | 14 | 13.5 | 35.8 | – | – | – | – | – | – | – | – | – | –
CCc1ccc2[nH]c(O)c(C3=Nc4ccccc4C3=O)c2c1 | 41.4 | > 100 | > 100 | 64.2 | > 100 | > 100 | > 100 | > 100 | 31.2 | > 100 | – | – | – | – | – | – | – | – | – | –
O=C(NN1C(=O)C(Cl)C1c1cccc([N+](=O)[O-])c1)c1ccccc1O (stereo not drawn) | > 100 | > 100 | > 100 | > 100 | – | > 100 | > 100 | > 100 | > 100 | > 100 | – | – | – | – | – | – | – | – | – | –
CCOc1cc(/C=C/C(=O)C(C(=O)/C=C/c2ccc(OC(=O)CNc3nc4ccccc4[nH]3)c(OCC)c2)C(=O)CNc2nc3ccccc3[nH]2)ccc1OC(=O)CNc1nc2ccccc2[nH]1 | > 100 | 3.26 | 2.95 | 3.04 | 74 | 4.26 | 8.73 | 2.51 | 11.7 | 3.16 | 1.62 | 1.6 | 1.47 | 3.39 | 1.4 | 2.85 | 0.754 | 1.14 | 4.23 | 2.96
O=c1[nH]c(SCc2cccc([N+](=O)[O-])c2)nc2nc[nH]c12 | > 100 | > 100 | > 100 | > 100 | > 100 | > 100 | > 100 | > 100 | > 100 | > 100 | – | – | – | – | – | – | – | – | – | –
Oc1[nH]c2ccccc2c1C1=Nc2ccccc2/C1=N\OCCOC1OCC(O)C(O)C1O (stereo not drawn) | > 100 | > 100 | > 100 | > 100 | > 100 | > 100 | > 100 | > 100 | > 100 | > 100 | – | – | – | – | – | – | – | – | – | –

— PubChem BioAssay (NCI)
